Laboratory results published in patent US20250235476A1, “METHODS AND COMPOSITIONS THAT ARE ALTERNATIVES TO ANTIBIOTICS” (priority 2022, published 2025).

Test system: non-specific upper respiratory infection (URI)
Test: Randomized double-blind placebo-controlled clinical trial: Days To Recovery (DTR)
Type: in vivo, human
Details: added to EZC during acute phase of illness
Method: Methods: A total of 360 patients across the United States were enrolled and randomized in a double-blind manner across two intervention groups, EZC, EZCD, and one placebo group. The study was conducted utilizing a smartphone-based app to screen, enroll and capture study data of the participants. Once a study participant reported the first symptoms of a URI, they were advised to take the intervention as directed and complete the daily symptom survey score until their symptoms resolved.
A total of 360 individuals, male or female over 18 years old, were enrolled by a third-party clinical research organization (CRO), to participate in the study. […] The placebo was composed of rice concentrate.
The study was conducted with the CRO's technology platform utilized to screen, enroll and capture study data of the participants.
Once a study participant reported the first symptoms of a URI, they were advised to take the intervention (i.e., placebo, EZC, or EZCD) taper dosed over a five-day period.
DTR is a metric that measures the total number of days in which a patient is experiencing symptoms of an illness while taking the intervention or placebo. DTR also directly lends itself for use in a log-rank analysis, which is used to compute statistical significance.
The primary limitation of DTR arises from the heterogeneous nature of the illness and the patient's unique recovery. […]

vitamin D
effect of addition of vitamin D on illness duration or symptom severity: neither benefited nor harmed
